The record followed here is patent US7704995B2 (Exelixis, Inc., priority 2003, dated 2010).

Structures are written as SMILES.

Broadly, the IC50 is the concentration that gives 50% inhibition.

The first experiment concerns the target T1, Chk1 (Homo sapiens, UniProt O14757).
T1 construct: purchased Upstate Biotechnology
T1 sequence (O14757 1-476): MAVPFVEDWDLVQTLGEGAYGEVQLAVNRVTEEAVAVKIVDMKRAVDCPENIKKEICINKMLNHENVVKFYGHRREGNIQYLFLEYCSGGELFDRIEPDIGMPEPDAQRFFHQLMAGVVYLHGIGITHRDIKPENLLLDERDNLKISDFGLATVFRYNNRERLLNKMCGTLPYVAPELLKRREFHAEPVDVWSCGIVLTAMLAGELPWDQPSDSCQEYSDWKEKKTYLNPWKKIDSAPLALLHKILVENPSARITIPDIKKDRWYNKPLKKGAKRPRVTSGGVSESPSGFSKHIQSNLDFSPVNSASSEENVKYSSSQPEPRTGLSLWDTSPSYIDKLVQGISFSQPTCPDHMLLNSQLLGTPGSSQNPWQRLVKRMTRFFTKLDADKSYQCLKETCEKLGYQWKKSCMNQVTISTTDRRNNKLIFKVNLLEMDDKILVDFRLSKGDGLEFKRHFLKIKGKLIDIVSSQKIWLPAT
Kind of experiment: Chk1 kinase assay: incorporation of γ-33P ATP into immobilized myelin basic protein. Type of experiment: biochemical. The conditions noted are these: Table 11, Chk1 only; class symbols A-D; read-out: Chk1 IC50. As for the experimental part: Chk1 and Chk2 assays were performed by measuring incorporation of γ-^33P ATP into immobilized myelin basic protein (MBP). High binding white 384 well plates (Greiner) were coated with MBP (Sigma #M-1891) by incubation of 60 ul/well of 20 μg/ml MBP in Tris-buffered saline (TBS; 50 mM Tris pH 8.0, 138 mM NaCl, 2.7 mM KCl) for 24 hours at 4° C. Plates were washed 3× with 100 μl TBS. Kinase reactions were carried out in a total volume of 34 μl in kinase buffer (5 mM Hepes pH 7.6, 15 mM NaCl, 0.01% bovine gamma globulin (Sigma #I-5506), 10 mM MgCl2, 1 mM DTT, 0.02% TritonX-100). Compound dilutions were performed in DMSO and added to assay wells to a final DMSO concentration of 1%. Each data point was measured in duplicate, and at least two duplicate assays were performed for each individual compound determination. Chk1 and Chk2 enzymes (Upstate Biotechnology) were added to final concentrations of 10 nM (Chk1) or 20 nM (Chk2). A mixture of unlabeled ATP and γ-^33P ATP was added to start the reaction (2×10^6 cpm of γ-^33P ATP per well (3000 Ci/mmole) and either 10 μM or 30 μM unlabeled ATP (for Chk1 and Chk2 assays respectively). The reaction was carried out for 1 hour at room temperature with shaking. Plates were washed 7× with TBS, followed by the addition of 50 μl/well scintillation fluid (Wallac). Plates were read using a Wallac Trilux counter. This is only one format of such assays, various other formats are possible, as known to those skilled in the art.
The above assay procedure can be used to determine the IC50 for inhibition and/or the inhibition constant Ki. The IC50 is defined as the concentration of compound required to reduce the enzyme activity by 50% under the conditions of the assay. […] The Ki for a compound may be determined from the IC50 based on three assumptions. First, only one compound molecule binds to the enzyme and there is no cooperativity. […] Third, the enzymatic rate of the enzyme-inhibitor complex is zero. The rate (i.e., compound concentration) data are fitted to the equation: […]
For the molecule `Nc1ncc(-c2cccc(C(=O)NCc3ccccc3OC(F)(F)F)c2)nc1C(=O)N[C@H]1CCCNC1` [Example 846, 3-amino-N-[(3S)-piperidin-3-yl]-6-(3-{[({2-[(trifluoromethyl)oxy]phenyl}methyl)amino]carbonyl}phenyl)pyrazine-2-carboxamide], the IC50 is less than 50 nM.

For the molecule `Nc1ncc(-c2cccc(C(=O)NCc3cccc(Cl)c3)c2)nc1-c1nnc([C@H]2CCCNC2)[nH]1` [Example 837, 3-(5-amino-6-{5-[(3S)-piperidin-3-yl]-4H-1,2,4-triazol-3-yl}pyrazin-2-yl)-N-[(3-chlorophenyl)methyl]benzamide], the IC50 is less than 50 nM. As to `Nc1ncc(-c2cccc(CNC(=O)Nc3ccc(F)cc3)c2)nc1C(=O)N[C@H]1CCCNC1` [Example 958, 3-amino-6-{3-[({[(4-fluorophenyl)amino]carbonyl}amino)methyl]phenyl}-N-[(3S)-piperidin-3-yl]pyrazine-2-carboxamide], the half-inhibitory concentration (IC50) is less than 50 nM.

As to `Cc1ccc(Cl)c(CNC(=O)c2cccc(-c3cnc(N)c(C(=O)N[C@H]4CCCNC4)n3)c2)c1F` [Example 1012, 3-amino-6-[3-({[(6-chloro-2-fluoro-3-methylphenyl)methyl]amino}carbonyl)phenyl]-N-[(3S)-piperidin-3-yl]pyrazine-2-carboxamide], the IC50 was less than 50 nM. Same read-out and setting: next, `Nc1ncc(-c2cccc(NC(=O)c3ccc(Br)cc3F)c2)nc1C(=O)N[C@H]1CCCNC1` [Example 909, 3-amino-6-(3-{[(4-bromo-2-fluorophenyl)carbonyl]amino}phenyl)-N-[(3S)-piperidin-3-yl]pyrazine-2-carboxamide]: less than 50 nM; `Nc1ncc(-c2cccc(OCCO)c2)nc1C(=O)N[C@H]1CCCNC1` [Example 904, 3-amino-6-{3-[(2-hydroxyethyl)oxy]phenyl}-N-[(3S)-piperidin-3-yl]pyrazine-2-carboxamide]: less than 50 nM.

The experiment is the same for the next values; noted with them: Table 11; Chk1 only; read-out: Chk1 IC50.
On to `COC[C@H]1CCCN1NC(=N)c1nc(-c2cccc(C(=O)NCc3ccccc3)c2)cnc1N` [Example 624, 3-{5-amino-6-[imino({(2R)-2-[(methyloxy)methyl]pyrrolidin-1-yl}amino)methyl]pyrazin-2-yl}-N-(phenylmethyl)benzamide], for which the half-maximal inhibitory concentration (IC50) is no less than 10000 nM.

Consider `Nc1ncc(-c2cccc(C(=O)NCc3ccccc3)c2)nc1C(=O)N[C@H]1CCN(C2CCNCC2)C1` [Example 687, 3-amino-6-(3-{[(phenylmethyl)amino]carbonyl}phenyl)-N-[(3S)-1-piperidin-4-ylpyrrolidin-3-yl]pyrazine-2-carboxamide], for which the concentration for half-maximal inhibition (IC50) was 1000 to 10000 nM. Consider `Nc1ncc(-c2cccc(CN[C@H]3CCc4ccccc43)c2)nc1C(=O)NCCN1CCCCC1` [Example 541, 3-amino-6-(3-{[(1S)-2,3-dihydro-1H-inden-1-ylamino]methyl}phenyl)-N-(2-piperidin-1-ylethyl)pyrazine-2-carboxamide], for which the IC50 lay in the range of 1000 to 10000 nM. In the case of `CC(C)(C)OC(=O)N1CCC[C@@H]1CN1CC[C@H](NC(=O)c2nc(-c3cccc(C(=O)NCc4ccccc4)c3)cnc2N)C1` [Example 688, 1,1-dimethylethyl (2R)-2-{[(3S)-3-({[3-amino-6-(3-{[(phenylmethyl)amino]carbonyl}phenyl)pyrazin-2-yl]carbonyl}amino)pyrrolidin-1-yl]methyl}pyrrolidine-1-carboxylate], the concentration for half-maximal inhibition (IC50) was no less than 10000 nM. The same measure, in the same setting: next, `CC(C)(C)OC(=O)N1CC[C@@H](CNC(=O)c2nc(-c3cccc(C(=O)N[C@H]4CCc5ccccc54)c3)cnc2N)C1` [Example 752, 1,1-dimethylethyl (3S)-3-[({[3-amino-6-(3-{[(1S)-2,3-dihydro-1H-inden-1-ylamino]carbonyl}phenyl)pyrazin-2-yl]carbonyl}amino)methyl]pyrrolidine-1-carboxylate]: no less than 10000 nM; `Nc1ncc(-c2cccc(CO)c2)nc1C(=O)NNC(=O)Nc1ccccc1` [Example 572, 2-({3-amino-6-[3-(hydroxymethyl)phenyl]pyrazin-2-yl}carbonyl)-N-phenylhydrazinecarboxamide]: 50 to 1000 nM. Still for that read-out and setting: to `CN(C)CCNC(=O)c1nc(-c2cccc(CN[C@H]3CCc4ccccc43)c2)cnc1N` [Example 556, 3-amino-6-(3-{[(1S)-2,3-dihydro-1H-inden-1-ylamino]methyl}phenyl)-N-[2-(dimethylamino)ethyl]pyrazine-2-carboxamide] belongs 50 to 1000 nM. Same read-out and setting: to `CC(C)(NC(=O)c1cccc(-c2cnc(N)c(C(=O)N[C@H]3CCNC3)n2)c1)c1ccccc1` [Example 801, 3-amino-6-(3-{[(1-methyl-1-phenylethyl)amino]carbonyl}phenyl)-N-[(3S)-pyrrolidin-3-yl]pyrazine-2-carboxamide] belongs 50 to 1000 nM; to `NNC(=O)c1nc(-c2cccc(CN[C@H]3CCc4ccccc43)c2)cnc1N` [Example 529, 3-amino-6-(3-{[(1S)-2,3-dihydro-1H-inden-1-ylamino]methyl}phenyl)pyrazine-2-carbohydrazide], 50 to 1000 nM. Regarding `CNC(=O)c1nc(-c2cccc(CNC3CCc4cc(-c5cc(C)cs5)ccc43)c2)cnc1N` (stereo not shown) [Example 496, 3-amino-N-methyl-6-[3-({[5-(4-methyl-2-thienyl)-2,3-dihydro-1H-inden-1-yl]amino}methyl)phenyl]pyrazine-2-carboxamide], the half-maximal inhibitory concentration (IC50) was less than 50 nM. Turning to `Nc1ncc(-c2cccc(CNC3CCc4ccccc43)c2)nc1C(=O)NCc1ccc2ccccc2c1` (stereo not shown) [Example 532, 3-amino-6-{3-[(2,3-dihydro-1H-inden-1-ylamino)methyl]phenyl}-N-(naphthalen-2-ylmethyl)pyrazine-2-carboxamide], the IC50 was no less than 10000 nM. Regarding `Nc1ncc(-c2cccc(CN[C@H]3CCc4ccccc43)c2)nc1C(=O)N[C@H]1CCNC1` [Example 685, 3-amino-6-(3-{[(1S)-2,3-dihydro-1H-inden-1-ylamino]methyl}phenyl)-N-[(3S)-pyrrolidin-3-yl]pyrazine-2-carboxamide], the IC50 is less than 50 nM. Still for that read-out and setting: to `Nc1ncc(-c2cccc(CN[C@H]3CCc4ccccc43)c2)nc1C(=O)NCc1ccccc1` [Example 544, 3-amino-6-(3-{[(1S)-2,3-dihydro-1H-inden-1-ylamino]methyl}phenyl)-N-(phenylmethyl)pyrazine-2-carboxamide] belongs 1000 to 10000 nM. In the case of `CNC(=O)c1nc(-c2cccc(CNC3Cc4cccc(F)c4C3)c2)cnc1N` (stereo not shown) [Example 466, 3-amino-6-(3-{[(4-fluoro-2,3-dihydro-1H-inden-2-yl)amino]methyl}phenyl)-N-methylpyrazine-2-carboxamide], the half-inhibitory concentration (IC50) was less than 50 nM.

Still in this experiment, the particulars now being: read-out: Chk1 IC50.
Take `CNC(=O)c1nc(-c2cccc(COCc3ccccc3)c2)cnc1N` [Example 314, 3-amino-N-methyl-6-(3-{[(phenylmethyl)oxy]methyl}phenyl)pyrazine-2-carboxamide]: the IC50 was in the range of 50 to 1000 nM.

In the case of `CNC(=O)c1nc(-c2cccc(C(=O)NCc3ccc(O)cc3)c2)cnc1N` [Example 323, 3-amino-6-[3-({[(4-hydroxyphenyl)methyl]amino}carbonyl)phenyl]-N-methylpyrazine-2-carboxamide], the IC50 lay within 50 to 1000 nM. The same measure, in the same setting: to `CNC(=O)c1nc(-c2cccc(NC(=O)Nc3ccc(F)cc3)c2)cnc1N` [Example 89, 3-amino-6-[3-({[(4-fluorophenyl)amino]carbonyl}amino)phenyl]-N-methylpyrazine-2-carboxamide] belongs 50 to 1000 nM; to `CCCCc1ccc(CNC(=O)c2cccc(-c3cnc(N)c(C(=O)NC)n3)c2)cc1` [Example 375, 3-amino-6-[3-({[(4-butylphenyl)methyl]amino}carbonyl)phenyl]-N-methylpyrazine-2-carboxamide], 50 to 1000 nM. For the molecule `CNC(=O)c1nc(-c2cccc(C(=O)NCc3ccc(Cl)cc3F)c2)cnc1N` [Example 275, 3-amino-6-[3-({[(4-chloro-2-fluorophenyl)methyl]amino}carbonyl)phenyl]-N-methylpyrazine-2-carboxamide], the half-maximal inhibitory concentration (IC50) was less than 50 nM.
